US20090226907A1, “ASSAY FOR DETECTION OF TELOMERASE ACTIVITY” (Sienna Cancer Diagnostics Limited, priority 2005, published 2009)
{SH-C6} = thiol hexyl linker

Target: T1, telomerase (Homo sapiens, UniProt O14746)
T1 construct: showing the effect of TBT oligonucleotide length in HEK293T cell lysates; endogenous in cells; host or cells: HEK293T cell lysate (CHAPS lysis buffer)
Test: TBT telomerase assay: effect of oligonucleotide length in HEK293T cell lysates
Assay type: biochemical
Conditions: luminescence, compared with short (0.5 repeat) and 2.5 repeat versions, FIG. 16
Excerpt: FIG. 16 is a graphical representation showing the effect of TBT oligonucleotide length in HEK293T cell lysates. […]

T1 sequence (O14746 whole entry): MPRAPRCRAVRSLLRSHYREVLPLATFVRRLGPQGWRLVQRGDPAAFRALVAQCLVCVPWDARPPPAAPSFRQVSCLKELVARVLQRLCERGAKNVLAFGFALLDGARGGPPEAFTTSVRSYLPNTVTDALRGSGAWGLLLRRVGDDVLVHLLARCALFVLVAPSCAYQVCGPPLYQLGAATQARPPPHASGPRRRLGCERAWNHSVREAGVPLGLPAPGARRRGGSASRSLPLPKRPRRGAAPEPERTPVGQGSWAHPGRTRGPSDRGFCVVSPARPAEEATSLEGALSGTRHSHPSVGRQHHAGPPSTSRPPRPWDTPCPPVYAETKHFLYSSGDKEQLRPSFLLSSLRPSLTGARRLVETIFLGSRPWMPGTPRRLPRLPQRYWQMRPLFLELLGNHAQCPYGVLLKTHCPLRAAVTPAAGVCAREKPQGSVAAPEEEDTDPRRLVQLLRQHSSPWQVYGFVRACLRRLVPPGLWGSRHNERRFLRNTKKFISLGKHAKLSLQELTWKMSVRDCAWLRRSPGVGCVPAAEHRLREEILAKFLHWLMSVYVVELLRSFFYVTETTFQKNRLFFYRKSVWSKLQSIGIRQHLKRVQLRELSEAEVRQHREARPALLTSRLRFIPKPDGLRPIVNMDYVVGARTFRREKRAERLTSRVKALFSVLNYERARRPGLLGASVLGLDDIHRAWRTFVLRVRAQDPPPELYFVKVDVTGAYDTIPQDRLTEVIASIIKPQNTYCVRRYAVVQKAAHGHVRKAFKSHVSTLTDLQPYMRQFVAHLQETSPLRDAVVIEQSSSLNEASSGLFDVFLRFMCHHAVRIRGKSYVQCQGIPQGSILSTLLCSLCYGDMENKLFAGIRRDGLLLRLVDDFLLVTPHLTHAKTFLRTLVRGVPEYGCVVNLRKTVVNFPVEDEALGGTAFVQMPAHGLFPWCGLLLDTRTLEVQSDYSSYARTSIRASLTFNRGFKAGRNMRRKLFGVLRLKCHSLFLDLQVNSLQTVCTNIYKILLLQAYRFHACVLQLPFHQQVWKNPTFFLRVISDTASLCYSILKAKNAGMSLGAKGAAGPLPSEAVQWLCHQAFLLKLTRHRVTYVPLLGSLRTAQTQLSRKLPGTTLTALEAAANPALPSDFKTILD
T1 sequence (O60832 whole entry partner): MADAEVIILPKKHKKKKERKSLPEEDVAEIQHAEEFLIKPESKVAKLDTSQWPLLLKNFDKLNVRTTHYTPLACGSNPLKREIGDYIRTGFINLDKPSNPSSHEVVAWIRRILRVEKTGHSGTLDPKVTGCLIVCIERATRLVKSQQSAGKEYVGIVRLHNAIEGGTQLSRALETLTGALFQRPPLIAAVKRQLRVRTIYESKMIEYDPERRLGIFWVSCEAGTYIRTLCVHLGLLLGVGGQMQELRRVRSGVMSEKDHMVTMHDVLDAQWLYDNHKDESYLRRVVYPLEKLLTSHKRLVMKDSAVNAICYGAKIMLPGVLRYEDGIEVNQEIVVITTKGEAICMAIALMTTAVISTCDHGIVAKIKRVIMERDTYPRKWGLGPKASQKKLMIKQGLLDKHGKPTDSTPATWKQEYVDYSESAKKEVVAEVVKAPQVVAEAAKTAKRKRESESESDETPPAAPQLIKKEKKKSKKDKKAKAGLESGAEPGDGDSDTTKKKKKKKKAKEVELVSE
T1 sequence (Q9NPE3 whole entry partner): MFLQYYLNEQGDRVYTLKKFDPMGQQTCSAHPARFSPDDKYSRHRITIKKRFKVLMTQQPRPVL
T1 sequence (Q9NX24 whole entry partner): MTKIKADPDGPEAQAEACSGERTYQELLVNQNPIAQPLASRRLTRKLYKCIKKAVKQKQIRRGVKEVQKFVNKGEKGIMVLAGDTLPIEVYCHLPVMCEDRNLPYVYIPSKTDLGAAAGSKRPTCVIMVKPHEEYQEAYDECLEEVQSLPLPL
T1 sequence (Q9NY12 whole entry partner): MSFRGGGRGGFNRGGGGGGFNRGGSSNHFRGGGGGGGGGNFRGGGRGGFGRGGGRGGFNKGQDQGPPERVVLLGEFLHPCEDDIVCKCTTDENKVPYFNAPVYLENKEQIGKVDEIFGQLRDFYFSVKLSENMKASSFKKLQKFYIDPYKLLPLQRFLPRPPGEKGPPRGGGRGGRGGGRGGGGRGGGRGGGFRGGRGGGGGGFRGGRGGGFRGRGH
T1 sequence (Q9BUR4 whole entry partner): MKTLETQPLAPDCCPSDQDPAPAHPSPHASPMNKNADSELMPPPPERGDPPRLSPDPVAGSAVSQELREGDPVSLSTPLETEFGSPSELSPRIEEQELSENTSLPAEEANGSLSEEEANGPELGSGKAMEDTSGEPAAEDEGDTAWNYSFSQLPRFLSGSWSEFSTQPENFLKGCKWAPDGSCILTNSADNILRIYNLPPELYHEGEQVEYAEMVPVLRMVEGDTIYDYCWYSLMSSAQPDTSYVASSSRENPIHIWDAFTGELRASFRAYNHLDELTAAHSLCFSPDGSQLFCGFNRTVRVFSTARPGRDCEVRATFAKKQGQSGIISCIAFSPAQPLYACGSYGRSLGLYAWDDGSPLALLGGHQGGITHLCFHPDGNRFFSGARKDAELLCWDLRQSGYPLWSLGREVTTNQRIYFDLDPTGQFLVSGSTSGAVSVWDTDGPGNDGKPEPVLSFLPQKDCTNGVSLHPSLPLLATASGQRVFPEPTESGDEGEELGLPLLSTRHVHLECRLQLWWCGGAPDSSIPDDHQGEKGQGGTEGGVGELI

Substance: 5′SH-(CH2)6-TTTTTTAATCCGTCGAGCAGAGTTAGGGTTAGGGTTAGG GTTAGGGTTAG (DNA TTTTTTAATCCGTCGAGCAGAGTTAGGGTTAGGGTTAGGGTTAGGGTTAG; DNA, 5' {SH-C6}, backbone and methylation of C not given here; bead-immobilized telomerase substrate oligo; listed as Homo sapiens) [longer version]
- absolute signal relative to the background signal (no telomerase extract): better absolute signal relative to the background signal
